Data taken from US20230286973A1, “PROTEIN SECRETION INHIBITORS” (KEZAR LIFE SCIENCES, priority 2020, published 2023).
Like-named read-outs stand apart in the source and are kept apart here.

Tests used:
[1] = tested on: PD1-ss+10aa/Gaussia Luciferase; assay: Dox-Induced PD1-ss-Gluc Assay; format: cell-based; conditions: 24 hr Dox induction, 293FRT/TO cells, read-out: 24 hr Dox Inducible PD1ssGluc 293FRT/TO: Mean IC50
How it was run: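 Flp-In 293 T-REx, stable line; Tet-regulated PD1-ss+10aa fused to Gaussia luciferase; plated day prior; cpd + doxycycline in DMSO/media; 37 °C, 5% CO2.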

[2] = tested on: TNFα-FL/Gaussia Luciferase; assay: Dox Induced TNFα-FL-Gluc Assay; format: cell-based; conditions: for IC50: 24 hr Dox induction, 293FRT/TO cells, read-out: 24 hr Dox Inducible TNFaFLGluc 293FRT/TO: Mean IC50; for 24 hr Dox Inducible TNFaFLGluc 293FRT/TO: TNF/PD1: ratio of TNFaFLGluc IC50 to PD1ssGluc IC50
How it was run: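 Hygromycin/blasticidin-selected Flp-In 293 T-REx cells, TNFα-FL/Gaussia luciferase fusion under T-REx control; overnight plating, then compound in DMSO/media with doxycycline at 37 °C, 5% CO2; stereo-undefined structures tested as mixtures.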

[3] = tested on: HER3-ss+4aa/Gaussia Luciferase; assay: Dox-Induced Her3-ss-Gluc Assay; format: cell-based; conditions: 24 hr Dox induction, 293FRT/TO cells, read-out: 24 hr Dox Inducible Her3(ss + 4)Gluc 293FRT/TO: Mean IC50
How it was run: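 Doxycycline-inducible HER3 signal sequence+4aa/Gaussia luciferase construct, stably integrated in Flp-In 293 T-REx cells; compound dilutions applied with doxycycline at 37° C., 5% CO2.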

[4] = tested on: IL-2-FL/Gaussia Luciferase; assay: Dox Induced IL2-FL-Gluc Assay; format: cell-based; conditions: for IC50: 24 hr Dox induction, 293FRT/TO cells, read-out: 24 hr Dox Inducible IL2FLGluc 293FRT/TO: Mean IC50; for 24 hr Dox Inducible IL2FLGluc 293FRT/TO: IL2/PD1: ratio of IL2FLGluc IC50 to PD1ssGluc IC50
How it was run: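 A hygromycin- and blasticidin-resistant 293 T-REx clone carrying inducible IL-2–Gaussia luciferase (full-length IL-2, residues 1-153) serves as the cell system. After overnight plating, the cells get test compounds together with doxycycline in DMSO/media and are incubated at 37° C, 5% CO2.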

[5] = tested on: multiple myeloma cell line NCI-H929; assay: H929 Cell Viability Assay; format: cell-based, human; conditions: Homo sapiens, NCI-H929, 48 h, NCI-H929 cells, Celltiter-Glo
How it was run: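 A 48-hour compound treatment of cells in 10% FBS RPMI medium was followed by luciferase-based viability quantification.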

[6] = tested on: multiple myeloma cell line U266B1; assay: U266 Cell Viability Assay; format: cell-based, human; conditions: Homo sapiens, U-266, 48 h, U266B1 cells, Celltiter-Glo
How it was run: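 After growth in serum-supplemented RPMI 1640, cells received serially diluted compound in DMSO/media and were kept 48 hours before a CellTiter-Glo luminescence readout.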

[7] = Liver Microsome Stability Assay (rat); conditions: rat liver microsomes, with NADPH, 1.0 uM compound
Description: (§1) Stability of a compound was assessed in the presence of liver microsomes from various sources—mouse, rat, monkey and human liver microsomes. 1.0 uM compound, 0.4% DMSO in 0.1 M Potassium Phosphate with 1.0 mg/mL liver microsomes, were incubated at 37° C. with or without 1 mM NADPH. The samples were quenched at 0, and 30 minutes.

[8] = Liver Microsome Stability Assay (mouse); conditions: mouse liver microsomes, with NADPH, 1.0 uM compound
Description: as §1

[9] = Liver Microsome Stability Assay (human); conditions: human liver microsomes, with NADPH, 1.0 uM compound
Description: as §1

[10] = Liver Microsome Stability Assay (monkey); conditions: monkey liver microsomes, with NADPH, 1.0 uM compound
Description: as §1

[11] = '<=>' given where both are I.A.

Compound	IC50 ([1]; mean) [nM]	IC50 ([2]; mean) [nM]	24 hr Dox Inducible TNFaFLGluc 293FRT/TO: TNF/PD1 [2, 11]	IC50 ([3]; mean) [nM]	IC50 ([4]; mean) [nM]	24 hr Dox Inducible IL2FLGluc 293FRT/TO: IL2/PD1 [4, 11]	EC50 [5] [nM]	EC50 [6] [nM]	Liver Microsome Stability (Multiple Species): Rat - % Remaining after 30 min w/NADPH [7] [%]	Liver Microsome Stability (Multiple Species): Mouse - % Remaining after 30 min w/NADPH [8] [%]	Liver Microsome Stability (Multiple Species): Human - % Remaining after 30 min w/NADPH [9] [%]	Liver Microsome Stability (Multiple Species): Monkey - % Remaining after 30 min w/NADPH [10] [%]	IC50 [1] [nM]	IC50 [2] [nM]	24 hr Dox Inducible TNFaFLGluc 293FRT/TO: TNF/PD1 [2]	IC50 [3] [nM]	IC50 [4] [nM]	24 hr Dox Inducible IL2FLGluc 293FRT/TO: IL2/PD1 [4]
N#CCCCn1cccc1C(=O)Nc1nc([C@H]2CCCN2c2ccccc2)cs1 [Compound C2, (R)-1-(3-cyanopropyl)-N-(4-(1-phenylpyrrolidin-2-yl)thiazol-2-yl)-1H-pyrrole-2-carboxamide]	483	9740	20.2	1380	1520	3.1	> 25000	> 25000	17.6	18	33.9	0.23						
COc1ccc(O[C@H]2CC[C@H](c3csc(NC(=O)c4cccn4Cc4ccncc4)n3)CC2)nc1 [Compound E34, N-(4-((1r,4r)-4-((5-methoxypyridin-2-yl)oxy)cyclohexyl)thiazol-2-yl)-1-(pyridin-4-ylmethyl)-1H-pyrrole-2-carboxamide]	312	8140	26.1	648	2600	8.3	19600	7920	0.26	0.06	0.19	3.44						
CC(=O)N1CCC(Oc2ccc(N3CCC[C@@H]3c3csc(NC(=O)c4cccn4Cc4ccnc(F)c4)n3)c(C#N)c2)CC1 [Compound A133, (R)-N-(4-(1-(4-((1-acetylpiperidin-4-yl)oxy)-2-cyanophenyl)pyrrolidin-2-yl)thiazol-2-yl)-1-((2-fluoropyridin-4-yl)methyl)-1H-pyrrole-2-carboxamide]							2010	> 25000	1.42	0.98	0.61	0.15	61	893	14.6	64.2	81.7	1.3
CC(C)n1cnc(/C=C/c2csc(NC(=O)c3cccn3Cc3ccncc3)n2)c1 [Compound B37, (E)-N-(4-(2-(1-isopropyl-1H-imidazol-4-yl)vinyl)thiazol-2-yl)-1-(pyridin-4-ylmethyl)-1H-pyrrole-2-carboxamide]							> 25000	> 25000	6.38	2.42	0.13	0.13	68.3	> 25000	>366	> 25000	> 25000	>370
NC(=O)CCn1cnc(/C=C/c2csc(NC(=O)c3cccn3Cc3ccnc(F)c3)n2)c1 [Compound B109, (E)-N-(4-(2-(1-(3-amino-3-oxopropyl)-1H-imidazol-4-yl)vinyl)thiazol-2-yl)-1-((2-fluoropyridin-4-yl)methyl)-1H-pyrrole-2-carboxamide]							> 25000	> 25000	60.4	60.2	10.2	5.04	> 25000	> 25000	<=>1.00	> 25000	> 25000	<=>1.0
